Results as given in patent US20050287192A1, “Wound bandage comprising a non-enzymatic antioxidant” (priority 2002, published 2005).
“Also recorded” adds a separate entry of the source.

How the values were obtained:
Assay type in all cases: cell-based, human
[1] = system: leukocytes; assay: lipid peroxidation of leukocyte cell membranes measured with fluorescent probe DPPP; details: contact between leukocytes and treated cotton wool compress, DPPP fluorescence; FIG. 5
Description: Lipid peroxidation of cell membranes during the contact between leukocytes and cotton wool compresses was measured with a fluorescent probe, diphenyl-1-pyrenylphosphine (DPPP), which reacts with membrane peroxides and forms a fluorescent oxide, see Okimoto, Watanabe, et al., 2000 FEBS Letter, vol 474, pages 137-140.

[2] = system: leukocytes; assay: stress activation of leukocytes in contact with cotton wool compresses, release of reactive oxygen by luminol-enhanced chemiluminescence; details: cotton wool compress with physiological saline solution with glutathione, final concentration 0.05 mM, vs untreated compress; FIG. 3
Description: First of all leukocytes were isolated from human veinous blood and the cells were then left in contact with cotton wool compresses and stress activation of the cells was measured as the release of reactive oxygen with luminol-enhanced chemiluminiscense.
From FIG. 1 it is apparent that the leukocytes are activated on contact with cotton wool compresses.
The cellulose is then reduced again with cyanoborohydride.

[3] = system: leukocytes; assay: ability of leukocytes to kill bacteria in presence of additives in solution (CFU count); details: additive 10 mM in solution; leukocytes 1×10^5 cells/ml and Staphylococcus aureus 1×10^6 cells/ml, 37° C., two hours; FIG. 6
Description: The ability of leukocytes to kill bacteria in the presence of glutathione (10 mM) or N-acetylcysteine (10 mM) in solution was studied in the following manner: Leukocytes (1×10^5 cells/ml) and Staphylococcus aureus (1×10^6 cells/ml) were incubated together at 37° C. for two hours. The leukocytes were killed and the remaining bacteria were allowed to grow on a blood agar plate for 24 hours, after which the number of bacterial colonies (CFU) was calculated. Control samples without leukocytes were done in parallel with all the tests. A small number of colonies means that the leukocytes have good ability to kill bacteria.

[4] = system: leukocytes; assay: ability of leukocytes to be activated by zymosan after contact with cotton wool compresses; details: after contact with cotton wool compress with additive; FIG. 4
Description: The ability of the leukocytes to react against a microbial agent after contact with the cotton wool compresses was then tested by addition of zymosan, a fungal spore used to test the ability of the leukocytes to kill microbes.

N[C@@H](CCC(=O)N[C@@H](CS)C(=O)NCC(=O)O)C(=O)O [glutathione]
lipid peroxidation of the cell membrane [1]: reduce the lipid peroxidation of the cell membrane | activation of leukocytes (release of reactive oxygen) [2]: does not affect activation of the leukocytes; also recorded: somewhat increased quantity of reactive oxygen | ability of leukocytes to kill bacteria (number of bacterial colonies, CFU) [3]: kill the bacteria completely | ability of leukocytes to be activated by zymosan [4]: retain the ability to be activated by zymosan

CC(=O)N[C@@H](CS)C(=O)O [N-acetylcysteine]
ability of leukocytes to kill bacteria (number of bacterial colonies, CFU) [3]: kill the bacteria completely
